Data as given in BindingDB's records for doi:10.7270/Q27H1H0J (Srmlsc, 2008).

What follows are molecules tested against T1, M1 family aminopeptidase (Plasmodium falciparum (isolate FcB1 / Columbia), UniProt O96935) (assay: P. falciparum M1AAP inhibitors, biochemical, fluorogenic H-Leu-NHMec substrate, 1536-well (AID 1445)).
T1 sequence (O96935 whole entry): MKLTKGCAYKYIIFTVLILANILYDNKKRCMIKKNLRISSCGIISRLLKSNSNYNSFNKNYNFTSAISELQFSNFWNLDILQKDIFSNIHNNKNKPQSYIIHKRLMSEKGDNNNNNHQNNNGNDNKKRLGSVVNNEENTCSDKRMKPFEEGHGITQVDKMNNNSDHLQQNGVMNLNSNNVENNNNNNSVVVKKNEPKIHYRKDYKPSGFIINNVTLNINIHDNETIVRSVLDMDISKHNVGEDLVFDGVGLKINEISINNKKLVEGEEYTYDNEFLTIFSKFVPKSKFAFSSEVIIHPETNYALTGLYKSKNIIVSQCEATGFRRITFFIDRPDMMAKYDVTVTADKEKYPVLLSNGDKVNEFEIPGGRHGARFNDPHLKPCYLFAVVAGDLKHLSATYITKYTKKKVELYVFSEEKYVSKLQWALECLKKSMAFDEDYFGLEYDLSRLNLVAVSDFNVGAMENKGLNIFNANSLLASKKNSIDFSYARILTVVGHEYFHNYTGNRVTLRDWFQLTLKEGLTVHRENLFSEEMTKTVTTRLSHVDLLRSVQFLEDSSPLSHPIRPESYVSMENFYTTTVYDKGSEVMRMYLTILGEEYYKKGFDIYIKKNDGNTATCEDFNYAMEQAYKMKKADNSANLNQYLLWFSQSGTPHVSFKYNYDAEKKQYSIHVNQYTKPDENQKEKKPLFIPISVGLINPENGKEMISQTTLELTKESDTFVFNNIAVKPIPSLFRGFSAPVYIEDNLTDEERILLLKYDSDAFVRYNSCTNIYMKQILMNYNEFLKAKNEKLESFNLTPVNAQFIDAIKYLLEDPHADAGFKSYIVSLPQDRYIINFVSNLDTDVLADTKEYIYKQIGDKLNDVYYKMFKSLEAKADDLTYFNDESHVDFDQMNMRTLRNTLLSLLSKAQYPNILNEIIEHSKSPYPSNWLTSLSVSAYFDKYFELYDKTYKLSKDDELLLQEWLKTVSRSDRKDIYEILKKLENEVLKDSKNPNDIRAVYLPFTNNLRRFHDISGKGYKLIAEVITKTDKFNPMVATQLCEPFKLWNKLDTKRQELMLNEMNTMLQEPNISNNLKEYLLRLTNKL
Work on CS(=O)(=O)Nc1nc2n(n1)C(c1ccccc1)CC(c1ccc(Br)cc1)=N2 (stereo not drawn) yielded an IC50 of 45.3 µM.
COc1ccc(-c2c/c(=N\CCC(=O)O)c3cc(C)ccc3o2)cc1 showed an IC50 of 38.9 µM.
Clc1ccc(CN=Nc2nnn[nH]2)cc1 gave an IC50 of 92.8 µM.
CC(NNC(=O)c1cccc(Cl)c1)=C1C(=O)c2ccccc2C1=O showed an IC50 of 40.8 µM.
For O=C1NC(=O)C(N=Nc2cc([N+](=O)[O-])ccc2O)C(=O)N1, the IC50 was 11.4 µM.
With Cc1ccc(-c2csc(-n3[nH]c(C)c(N=Nc4ccccc4O)c3=O)n2)cc1 the IC50 was 3.37 µM.
With N#C/C(=C\C1C=CC(=O)C([N+](=O)[O-])=C1)c1nc2ccccc2s1 (stereo not drawn) the IC50 was 33.9 µM.
In the case of CCOc1ccc(-n2c(O)c(CN=Nc3nnc(C)c(=O)[nH]3)c3ccccc3c2=O)cc1, the IC50 is reported as 20.9 µM.
In the case of CCC(=O)N1N=C(C2C(=O)N(C)C(=O)N(C)C2=O)CC1c1ccccc1 (stereo not drawn), the IC50 is reported as 41.9 µM.
In the case of Cc1[nH]n(-c2ccccc2)c(=O)c1C=Nc1ccccc1O, the IC50 is reported as 12.8 µM.
O=C(O)c1ccc(-c2ccc(CN=Nc3ccc([N+](=O)[O-])cc3)o2)cc1 was tested, and the IC50 was 43.1 µM.
CNC(=S)N/N=C1\C(=O)Nc2ccccc21 [1-methyl-3-[(2-oxoindol-3-yl)amino]thiourea] was tested, and the IC50 was 47.9 µM.
Molecule Nc1nnc(CC(=O)N/N=C/C2C=C([N+](=O)[O-])C=C(Br)C2=O)s1 (stereo not drawn) [2-(5-azanyl-1,3,4-thiadiazol-2-yl)-N'-[(E)-(5-bromanyl-3-nitro-6-oxidanylidene-cyclohexa-2,4-dien-1-ylidene)methyl]ethanehydrazide] has an IC50 of 30 µM.
CN1C(=O)/C(=C/c2ccc(-c3ccccc3[N+](=O)[O-])o2)S/C1=N/c1ccc(Cl)c(C(=O)O)c1 [2-Chloro-5-[3-methyl-5-[1-[5-(2-nitro-phenyl)-furan-2-yl]-meth-(Z)-ylidene]-4-oxo-thiazolidin-(2Z)-ylideneamino]-benzoic acid] gave an IC50 of 16.1 µM.
CC(N=Nc1nc(C(=O)O)cs1)c1ccccc1 (stereo not drawn) [2-[2-(1-phenylethylidene)hydrazinyl]-4-thiazolecarboxylic acid] was tested, and the IC50 was 34.2 µM.
In the case of COc1ccc(CN=Nc2nc(O)c(CC(=O)O)s2)cc1OCc1ccc(Cl)cc1 [2-[2-[2-[[3-[(4-chlorophenyl)methoxy]-4-methoxy-phenyl]methylidene]hydrazinyl]-4-oxidanylidene-1,3-thiazol-5-yl]ethanoic acid], the IC50 is reported as 66.7 µM.
Molecule CCOC(=O)C1C(=O)C(=Cc2ccc(OCC(=O)O)c(OCC)c2)SC1=Nc1ccccc1 (stereo not drawn) [2-[4-[(Z)-(5-anilino-4-ethoxycarbonyl-3-oxo-2-thiophenylidene)methyl]-2-ethoxyphenoxy]acetic acid] has an IC50 of 60.2 µM.
Work on CCOC(=O)C1C(=O)C(=Cc2ccc(OCC(=O)O)c(OC)c2)SC1=Nc1ccc(OC)cc1 (stereo not drawn) [2-[4-[(Z)-[4-ethoxycarbonyl-5-[(4-methoxyphenyl)amino]-3-oxidanylidene-thiophen-2-ylidene]methyl]-2-methoxy-phenoxy]ethanoic acid] yielded an IC50 of 87.3 µM.
COc1ccc(-c2n[nH]c3c2C2(C(=O)N(CC(=O)O)c4ccccc42)C(C#N)C(=N)O3)cc1OC (stereo not drawn) [2-[6-amino-5-cyano-3-(3,4-dimethoxyphenyl)-2'-oxo-1'-spiro[2H-pyrano[2,3-c]pyrazole-4,3'-indole]yl]acetic acid] was tested, and the IC50 was 43.3 µM.
For N#CC(=NNc1ccc(Cl)cc1)C(=O)c1ccccc1 [2-[(4-chlorophenyl)hydrazono]-3-oxo-3-phenylpropanenitrile], the IC50 was 106 µM.
In the case of CCOC(=O)C(C=NC(N)=Nc1nc2ccccc2o1)C(=O)OCC [2-[[[amino-(1,3-benzoxazol-2-ylamino)methylidene]amino]methylidene]propanedioic acid diethyl ester], the IC50 is reported as 79.2 µM.
In the case of O=C(O)c1cc(-c2ccc(CN=Nc3ccc([N+](=O)[O-])cn3)o2)ccc1Cl [2-chloro-5-[5-[[(5-nitropyridin-2-yl)hydrazinylidene]methyl]furan-2-yl]benzoic acid], the IC50 is reported as 12.7 µM.
COC1=CC(C=NNC(=O)C(Cc2c[nH]c3ccccc23)NC(=O)OCC(C)C)C=C([N+](=O)[O-])C1=O (stereo not drawn) [2-methylpropyl N-[3-(1H-indol-3-yl)-1-[2-[(E)-(3-methoxy-5-nitro-4-oxidanylidene-cyclohexa-2,5-dien-1-ylidene)methyl]hydrazinyl]-1-oxidanylidene-propan-2-yl]carbamate] was tested, and the IC50 was 16.7 µM.
For O=C1Nc2ccccc2SC1C=NCc1ccccc1Cl (stereo not drawn) [2-{[(2-chlorobenzyl)amino]methylene}-2H-1,4-benzothiazin-3(4H)-one], the IC50 was 5.63 µM.
With O=C1OC(C(C=Nc2cc(Cl)ccc2O)[N+](=O)[O-])c2ccccc21 (stereo not drawn) [3-[(E)-2-[(5-chloranyl-2-oxidanyl-phenyl)amino]-1-nitro-ethenyl]-3H-2-benzofuran-1-one] the IC50 was 48.8 µM.
COc1cc(C=Nn2c(O)csc2=S)cc(Br)c1O [3-[[(Z)-(3-bromo-5-methoxy-4-oxo-1-cyclohexa-2,5-dienylidene)methyl]amino]-2-sulfanylidene-4-thiazolidinone] showed an IC50 of 107 µM.
C=c1[nH]n(-c2nnc(C)c(=O)[nH]2)c(=O)c1=Cc1ccc(N(CC)CC)cc1 [3-{4-[1-(4-Diethylamino-phenyl)-meth-(Z)-ylidene]-3-methyl-5-oxo-4,5-dihydro-pyrazol-1-yl}-6-methyl-4H -[1,2,4]triazin-5-one] gave an IC50 of 42.6 µM.
COc1ccc(OC)c(C2C(C(=O)Nc3cccnc3)=C(C)N=C3CCCC(=O)C32)c1 (stereo not drawn) [4-(2,5-dimethoxyphenyl)-2-methyl-5-oxo-N-3-pyridinyl-1,4,5,6,7,8-hexahydro-3-quinolinecarboxamide] showed an IC50 of 52.9 µM.
CC(=O)N1N=C(C2C(=O)N(C)C(=O)N(C)C2=O)CC1c1ccccc1 (stereo not drawn) [5-(1-acetyl-5-phenylpyrazolidin-3-ylidene)-1,3-dimethyl-1,3-diazinane-2,4,6-trione] was tested, and the IC50 was 16 µM.
In the case of NC(=NNC=c1ccc(=C2C=CC(=O)C(C(=O)O)=C2)o1)N[N+](=O)[O-] [5-(5-{2-[amino(nitroimino)methyl]carbonohydrazonoyl}-2-furyl)-2-hydroxybenzoic acid], the IC50 is reported as 10.2 µM.
O=C1NC(=S)NC(=O)C1N=Nc1ccc(-c2ccccc2)cc1[N+](=O)[O-] [5-[(2-nitro-4-phenylphenyl)hydrazinylidene]-2-sulfanylidene-1,3-diazinane-4,6-dione] gave an IC50 of 10.5 µM.
For O=C1NC(=S)NC(=O)C1N=Nc1cc2c(cc1[N+](=O)[O-])OCO2 [5-[(6-nitro-1,3-benzodioxol-5-yl)hydrazinylidene]-2-sulfanylidene-1,3-diazinane-4,6-dione], the IC50 was 26.9 µM.
O=C1N=c2ccc(Br)cc2=C1NNc1nnn[nH]1 [5-bromanyl-3-[2-(2H-1,2,3,4-tetrazol-5-yl)hydrazinyl]indol-2-one] gave an IC50 of 26.5 µM.
CCOc1cc(C2C3=C(CCCC3=O)N=C3CCCC(=O)C32)cc(Cl)c1O (stereo not drawn) [9-(3-Chloro-5-ethoxy-4-hydroxy-phenyl)-3,4,6,7,9,10-hexahydro-2H,5H-acridine-1,8-dione] was tested, and the IC50 was 23.9 µM.
In the case of CCOC(=O)C1C(=O)C(=Cc2ccc(OCC(=O)O)c(OCC)c2)SC1=Nc1ccc(C)cc1 (stereo not drawn) [(2-ethoxy-4-{[4-(ethoxycarbonyl)-5-[(4-methylphenyl)amino]-3-oxo-2(3H)-thienylidene]methyl}phenoxy)acetic acid], the IC50 is reported as 48.6 µM.
CC(=O)Nc1ccc(S(=O)(=O)Oc2cccc(CN=Nc3nc(O)c(CC(=O)O)s3)c2)cc1 [(2-{[3-({[4-(acetylamino)phenyl]sulfonyl}oxy)benzylidene]hydrazono}-4-oxo-1,3-thiazolidin-5-yl)acetic acid] showed an IC50 of 52.8 µM.
For COC1=CC(/C=C(\C#N)c2nc3ccc(C)cc3[nH]2)C=C([N+](=O)[O-])C1=O (stereo not drawn) [(2Z,3E)-3-(3-methoxy-5-nitro-4-oxocyclohexa-2,5-dien-1-ylidene)-2-(5-methyl-1,3-dihydrobenzimidazol-2-ylidene)propanenitrile], the IC50 was 16.2 µM.
Work on CCc1ccc2oc(-c3ccc(OC)cc3)c/c(=N\c3cccc(C(=O)O)c3)c2c1 [(3-carboxyphenyl)-[6-ethyl-2-(4-methoxyphenyl)-1-benzopyran-4-ylidene]ammonium;tetrafluoroborate] yielded an IC50 of 11.9 µM.
With CN1CCN(CC2=c3oc(=O)c(=C4C=CCC=N4)cc3C=CC2=O)CC1 [(3E)-8-[(4-methylpiperazin-1-yl)methyl]-3-(1H-pyridin-2-ylidene)chromene-2,7-dione] the IC50 was 52.2 µM.
With O=[N+]([O-])c1cc(Br)c(O)c(CN=Nc2nnnn2-c2cccc3ccccc23)c1 [(6E)-2-bromo-6-[[2-(1-naphthalen-1-yltetrazol-5-yl)hydrazinyl]methylidene]-4-nitrocyclohexa-2,4-dien-1-one] the IC50 was 6.79 µM.
Oc1ccc(O)n1-c1nc2n(n1)C(c1ccccc1)CC(c1ccc(Br)cc1)=N2 (stereo not drawn) [MLS000037189] showed an IC50 of 69.7 µM.
For O=C1CC(c2ccco2)CC(=O)C1=CNc1cc(Cl)ccc1O (stereo not drawn) [MLS000037985], the IC50 was 5.58 µM.
For COc1ccccc1C1CC(c2ccc(Cl)cc2)=Nc2nc(-n3c(O)ccc3O)nn21 (stereo not drawn) [MLS000040652], the IC50 was 31.3 µM.
